Laboratory results: patent publication US11713338B2, “Cyclic peptides multimers targeting α-4-β-7 integrin” (priority 2016, dated 2023)

How the values were obtained:
[1] = biological target: T1, recombinant integrin α4β1 (Homo sapiens, UniProt P05556+P13612); experiment: Integrin α4β1—VCAM-1 competition ELISA; assay type: binding; conditions: read-out: ELISA a4b1 Assay IC50
T1 construct: purchased R&D Systems 5397-A3-050
Outline: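 Compound dilutions added to coated plate and shaken at room temperature for 2 h (300 rpm) to binding equilibrium. Wash buffer: 50 mM Tris, 100 mM NaCl, 1 mM MnCl2, 0.05% Tween. Bound Fc-tagged ligand detected with anti-human IgG Fc-HRP, 1 h at room temperature.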

[2] = biological target: T2, recombinant integrin α4β7 (Homo sapiens, UniProt P13612+P26010, DEL724-798); experiment: Integrin α4β7—MAdCAM-1 ELISA competition assay; assay type: binding; conditions: for ELISA Assay Ratio b1/b7: ratio of a4b1 to a4b7 ELISA IC50; for IC50: read-out: ELISA a4b7 Assay IC50
T2 construct: purchased R&D Systems 5397-A3-050
T2 sequence (P13612 34-970 limits assumed): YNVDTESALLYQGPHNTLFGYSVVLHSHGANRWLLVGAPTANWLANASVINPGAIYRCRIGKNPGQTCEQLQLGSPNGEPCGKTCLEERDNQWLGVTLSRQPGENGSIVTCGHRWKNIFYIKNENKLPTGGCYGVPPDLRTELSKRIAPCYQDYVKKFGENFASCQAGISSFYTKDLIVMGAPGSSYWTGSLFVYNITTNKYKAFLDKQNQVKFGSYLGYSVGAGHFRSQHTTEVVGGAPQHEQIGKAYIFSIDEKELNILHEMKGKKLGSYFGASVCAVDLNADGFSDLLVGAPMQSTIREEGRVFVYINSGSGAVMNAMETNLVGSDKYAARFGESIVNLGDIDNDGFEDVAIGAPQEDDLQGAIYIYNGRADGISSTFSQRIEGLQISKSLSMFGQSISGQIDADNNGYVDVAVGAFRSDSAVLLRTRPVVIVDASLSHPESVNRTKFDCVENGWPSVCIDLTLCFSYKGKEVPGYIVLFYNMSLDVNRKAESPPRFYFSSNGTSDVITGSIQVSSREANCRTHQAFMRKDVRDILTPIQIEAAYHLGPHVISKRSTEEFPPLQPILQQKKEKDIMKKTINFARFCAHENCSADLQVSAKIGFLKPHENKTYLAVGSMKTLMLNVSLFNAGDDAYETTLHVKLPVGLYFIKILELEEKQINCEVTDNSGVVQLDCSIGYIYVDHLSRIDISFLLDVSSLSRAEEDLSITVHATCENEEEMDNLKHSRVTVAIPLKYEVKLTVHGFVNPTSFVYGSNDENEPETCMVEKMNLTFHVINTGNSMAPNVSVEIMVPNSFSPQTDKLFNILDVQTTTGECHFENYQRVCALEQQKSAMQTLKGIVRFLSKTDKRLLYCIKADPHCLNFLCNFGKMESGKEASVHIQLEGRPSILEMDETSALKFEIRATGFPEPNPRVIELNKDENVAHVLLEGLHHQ
T2 sequence (P26010 20-723 limits assumed): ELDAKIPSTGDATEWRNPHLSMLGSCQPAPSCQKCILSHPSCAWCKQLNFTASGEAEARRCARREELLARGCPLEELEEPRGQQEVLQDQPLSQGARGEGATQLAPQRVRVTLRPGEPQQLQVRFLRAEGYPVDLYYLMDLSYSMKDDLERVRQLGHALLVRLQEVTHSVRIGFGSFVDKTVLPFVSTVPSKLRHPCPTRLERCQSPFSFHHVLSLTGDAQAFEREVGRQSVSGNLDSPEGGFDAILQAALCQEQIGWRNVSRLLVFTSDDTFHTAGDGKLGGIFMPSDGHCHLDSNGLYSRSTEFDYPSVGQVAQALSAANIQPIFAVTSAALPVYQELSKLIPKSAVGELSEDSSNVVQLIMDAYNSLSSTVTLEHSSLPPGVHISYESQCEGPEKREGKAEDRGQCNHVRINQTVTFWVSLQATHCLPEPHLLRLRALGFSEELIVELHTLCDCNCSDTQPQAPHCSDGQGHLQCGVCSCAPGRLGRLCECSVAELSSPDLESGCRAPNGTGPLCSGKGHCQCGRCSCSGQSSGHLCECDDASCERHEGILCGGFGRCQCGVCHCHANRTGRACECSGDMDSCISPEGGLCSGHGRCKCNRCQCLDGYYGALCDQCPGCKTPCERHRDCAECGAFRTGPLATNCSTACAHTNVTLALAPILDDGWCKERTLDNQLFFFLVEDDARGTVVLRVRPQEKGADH

[3] = biological target: T3, integrin α4β7 (RPMI8866 human cells adhering to MAdCAM-1) (Homo sapiens, UniProt P13612+P26010); experiment: Integrin α4β7-MAdCAM cell adhesion assay (RPMI8866 cells); assay type: cell-based; conditions: RPMI8866 cells adhering to MAdCAM; read-out: RPMI8866 Adhesion α4β7/MAdCAM IC50
T3 construct: RMP18866 cells, which express integrin α4β7; host or cells: RPMI8866
T3 sequence (P13612 34-1032): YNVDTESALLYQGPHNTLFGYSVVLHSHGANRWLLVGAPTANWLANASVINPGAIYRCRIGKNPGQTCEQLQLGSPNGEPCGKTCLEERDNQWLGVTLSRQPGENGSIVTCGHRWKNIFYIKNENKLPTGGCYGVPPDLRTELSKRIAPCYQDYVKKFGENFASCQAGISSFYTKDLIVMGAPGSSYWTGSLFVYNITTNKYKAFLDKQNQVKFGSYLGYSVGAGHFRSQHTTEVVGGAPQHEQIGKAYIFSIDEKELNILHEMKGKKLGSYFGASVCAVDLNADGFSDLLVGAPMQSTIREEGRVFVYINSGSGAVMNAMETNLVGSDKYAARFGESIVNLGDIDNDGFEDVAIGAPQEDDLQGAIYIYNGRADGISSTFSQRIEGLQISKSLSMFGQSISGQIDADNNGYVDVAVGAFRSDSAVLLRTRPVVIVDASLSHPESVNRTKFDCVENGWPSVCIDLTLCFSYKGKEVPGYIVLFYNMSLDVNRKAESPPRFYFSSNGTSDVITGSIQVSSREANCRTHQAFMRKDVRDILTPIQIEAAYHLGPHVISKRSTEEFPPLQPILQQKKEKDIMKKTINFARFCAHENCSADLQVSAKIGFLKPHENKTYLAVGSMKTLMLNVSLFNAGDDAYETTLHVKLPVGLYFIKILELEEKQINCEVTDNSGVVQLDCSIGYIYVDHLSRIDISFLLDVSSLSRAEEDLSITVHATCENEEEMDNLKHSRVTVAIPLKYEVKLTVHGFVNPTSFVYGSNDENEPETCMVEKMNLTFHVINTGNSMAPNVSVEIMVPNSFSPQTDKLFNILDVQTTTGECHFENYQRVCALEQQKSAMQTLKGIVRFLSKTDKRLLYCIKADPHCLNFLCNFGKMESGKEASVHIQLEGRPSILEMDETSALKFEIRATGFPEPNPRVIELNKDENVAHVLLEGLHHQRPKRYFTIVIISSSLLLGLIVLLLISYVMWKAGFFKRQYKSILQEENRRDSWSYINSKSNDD
T3 sequence (P26010 20-798): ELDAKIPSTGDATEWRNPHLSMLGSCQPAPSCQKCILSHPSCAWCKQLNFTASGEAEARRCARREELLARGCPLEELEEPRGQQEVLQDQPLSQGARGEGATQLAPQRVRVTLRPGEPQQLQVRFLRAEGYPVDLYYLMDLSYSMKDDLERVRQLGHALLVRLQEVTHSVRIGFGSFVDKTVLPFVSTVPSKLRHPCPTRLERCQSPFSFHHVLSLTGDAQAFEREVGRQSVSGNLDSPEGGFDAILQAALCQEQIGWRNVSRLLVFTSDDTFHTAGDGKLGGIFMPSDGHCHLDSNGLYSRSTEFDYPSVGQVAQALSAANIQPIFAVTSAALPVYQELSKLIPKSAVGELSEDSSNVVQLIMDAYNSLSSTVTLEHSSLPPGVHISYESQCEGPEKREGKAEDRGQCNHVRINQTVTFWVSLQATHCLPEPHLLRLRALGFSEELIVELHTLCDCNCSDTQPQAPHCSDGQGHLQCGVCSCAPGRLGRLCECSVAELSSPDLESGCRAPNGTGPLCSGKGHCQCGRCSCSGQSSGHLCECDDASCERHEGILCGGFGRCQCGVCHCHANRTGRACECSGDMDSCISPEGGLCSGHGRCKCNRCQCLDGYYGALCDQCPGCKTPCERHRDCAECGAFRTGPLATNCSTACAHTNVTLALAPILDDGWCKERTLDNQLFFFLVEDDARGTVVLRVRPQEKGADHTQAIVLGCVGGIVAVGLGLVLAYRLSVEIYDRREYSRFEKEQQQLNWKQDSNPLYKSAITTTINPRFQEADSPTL
Description: Integrin α4β7-MAdCAM Cell Adhesion Assay
RPMI8866 cells were resuspended at 10 million cells/ml in PBS containing […] and incubated at 37° C. for 30 min in a 50 ml tube. […] The plate was emptied by inverting and blotting on paper towels and washed manually twice with PBS. 100 μl PBS was then added to each well. […] To calculate the dose response, the fluorescence value of control wells not containing cells was subtracted from each test well.

T1 sequence (P05556 21-728 limits assumed, one chain of several): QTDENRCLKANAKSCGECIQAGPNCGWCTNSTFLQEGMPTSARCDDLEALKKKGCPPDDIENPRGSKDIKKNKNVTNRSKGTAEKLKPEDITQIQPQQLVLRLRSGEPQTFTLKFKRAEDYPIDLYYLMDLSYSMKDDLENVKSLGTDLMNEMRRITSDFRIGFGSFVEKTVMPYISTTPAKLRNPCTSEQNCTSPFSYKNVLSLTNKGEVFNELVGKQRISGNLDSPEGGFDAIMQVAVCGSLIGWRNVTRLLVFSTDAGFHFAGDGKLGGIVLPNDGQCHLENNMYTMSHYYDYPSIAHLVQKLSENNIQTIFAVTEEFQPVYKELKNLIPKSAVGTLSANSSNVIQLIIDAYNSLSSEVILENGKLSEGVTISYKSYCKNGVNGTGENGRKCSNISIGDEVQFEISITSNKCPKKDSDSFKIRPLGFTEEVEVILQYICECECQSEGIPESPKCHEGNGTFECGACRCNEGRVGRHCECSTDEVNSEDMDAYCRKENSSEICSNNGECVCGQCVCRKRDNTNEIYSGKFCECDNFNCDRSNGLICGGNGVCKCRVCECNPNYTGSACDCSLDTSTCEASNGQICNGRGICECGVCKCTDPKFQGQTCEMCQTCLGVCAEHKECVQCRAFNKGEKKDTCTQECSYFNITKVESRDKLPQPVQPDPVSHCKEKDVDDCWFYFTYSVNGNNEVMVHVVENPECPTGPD

Row | IC50 [3] [nM] | Structure (SMILES) | IC50 [1] [nM] | ELISA Assay Ratio b1/b7 [2] | IC50 [2] [nM]
1 |  | CC(C)C[C@@H]1NC(=O)C[C@H](CCCCN)NC(=O)C2(CCNCC2)NC(=O)[C@@H]2CCCN2[C@H](C(=O)NC(C)(C)C)[C@H](C)NC(=O)[C@H]([C@@H](C)O)NC(=O)[C@H](CC(=O)O)NC1=O [Compound 275] | 779 | 7.7 | 101
2 |  | CC[C@@H](C)[C@@H]1NC(=O)[C@H](CC(=O)O)NC(=O)[C@H](CC(C)C)NC(=O)C[C@H](CCCCN)NC(=O)[C@H](Cc2ccc(CN)cc2)NC(=O)[C@@H]2CCCN2[C@H](C(=O)NC(C)(C)C)[C@H](C)NC1=O [Compound 285] | 553 | 6.2 | 89
3 |  | CC(C)C[C@@H]1NC(=O)C[C@H](CCCCN)NC(=O)C2(Cc3ccccc3C2)NC(=O)[C@@H]2CCCN2[C@H](C(=O)NC(C)(C)C)[C@H](C)NC(=O)[C@H]([C@@H](C)O)NC(=O)[C@H](CC(=O)O)NC1=O [Compound 288] | 1660 | 12.2 | 136
4 |  | CC(C)C[C@@H]1NC(=O)C[C@H](CCCCN)NC(=O)CN(Cc2ccccc2)C(=O)[C@@H]2CCCN2[C@H](C(=O)NC(C)(C)C)[C@H](C)NC(=O)[C@H]([C@@H](C)O)NC(=O)[C@H](CC(=O)O)NC1=O [Compound 296] | 14700 | 94.8 | 
5 |  | CC(C)C[C@@H]1NC(=O)c2ccc(-c3ccncc3)c(c2)CNC(=O)[C@H](Cc2ccc(O)cc2)NC(=O)[C@@H]2CCCN2[C@H](C(=O)NC(C)(C)C)[C@H](C)NC(=O)[C@H]([C@@H](C)O)NC(=O)[C@H](CC(=O)O)NC1=O [Compound 337] | 177 | 2.9 | 61
6 |  | CC(C)C[C@@H]1NC(=O)c2ccc(-c3cccc4ncccc34)c(c2)CNC(=O)[C@@H]2CCCN2[C@H](C(=O)NC(C)(C)C)[C@H](C)NC(=O)[C@H]([C@@H](C)O)NC(=O)[C@H](CC(=O)O)NC1=O [Compound 347] | 30 | 1.3 | 23
7 |  | CC(C)C[C@@H]1NC(=O)c2ccc(-c3ccccc3N3CCNCC3)c(c2)CNC(=O)[C@@H]2CCCN2[C@H](C(=O)NC(C)(C)C)[C@H](C)NC(=O)[C@H]([C@@H](C)O)NC(=O)[C@H](CC(=O)O)NC1=O [Compound 348] | 41 | 1.5 | 27
8 |  | CC(C)C[C@@H]1NC(=O)c2cccc(c2)CNC(=O)[C@@H]2CCCN2[C@H](C(=O)NC(C)(C)C)[C@H](C)NC(=O)[C@H]([C@@H](C)O)NC(=O)[C@H](CC(=O)O)NC1=O [Compound 358] | 1110 | 8.7 | 127
9 |  | CC(C)C[C@@H]1NC(=O)c2cc(cc(-c3ccncc3)c2)CNC(=O)[C@@H]2CCCN2[C@H](C(=O)NC(C)(C)C)[C@H](C)NC(=O)[C@H]([C@@H](C)O)NC(=O)[C@H](CC(=O)O)NC1=O [Compound 362] | 238 | 5.6 | 43
10 | 33 | CC(C)C[C@@H]1NC(=O)c2ccc(-c3ccc(N4CCN(C(=O)C5(C(=O)N6CCN(c7ccc(-c8ccc9cc8CNC(=O)[C@@H]8CCCN8[C@H](C(=O)NC(C)(C)C)[C@H](C)NC(=O)[C@H]([C@@H](C)O)NC(=O)[C@H](CC(=O)O)NC(=O)[C@H](CC(C)C)NC9=O)cc7)CC6)CC5)CC4)cc3)c(c2)CNC(=O)[C@@H]2CCCN2[C@H](C(=O)NC(C)(C)C)[C@H](C)NC(=O)[C@H]([C@@H](C)O)NC(=O)[C@H](CC(=O)O)NC1=O [Compound 459] |  |  | 
11 | 21 | CC(C)C[C@@H]1NC(=O)c2ccc(-c3ccc(N4CCN(C(=O)c5ccc(C(=O)N6CCN(c7ccc(-c8ccc9cc8CNC(=O)[C@@H]8CCCN8[C@H](C(=O)NC(C)(C)C)[C@H](C)NC(=O)[C@H]([C@@H](C)O)NC(=O)[C@H](CC(=O)O)NC(=O)[C@H](CC(C)C)NC9=O)cc7)CC6)c6ccccc56)CC4)cc3)c(c2)CNC(=O)[C@@H]2CCCN2[C@H](C(=O)NC(C)(C)C)[C@H](C)NC(=O)[C@H]([C@@H](C)O)NC(=O)[C@H](CC(=O)O)NC1=O [Compound 463] |  |  | 
